Measured values from patent publication US8309790B2, “Animal models for demyelination disorders” (University of Chicago, priority 2005, dated 2012).

Legend:
Type in all cases: in vivo
[1] = system: ER stress markers BIP, CHOP, p-eIF-2α; assay: ER stress markers in the corpus callosum of cuprizone treated mice expressing IFN-γ
Procedure: Repression of remyelination by IFN-γ is associated with ER stress. […] To determine whether IFN-γ interferes with endoplasmic reticulum (ER) function in remyelinating oligodendrocytes, the expression of ER stress markers was monitored in the corpus callosum of mice expressing IFN-γ. The study was performed using the transgenic mice described in Example 1.
The level of mRNA encoding ER stress associated genes binding immunoglobulin protein/78 KDa glucose regulated protein (BIP/GRP78) and the CAATT enhancer-binding protein homologous protein/growth and DNA damage protein 153 (CHOP/GADD153), was determined using real time PCR, as described in Example 1 in the corpus callosum of the cuprizone treated mice of Example 1. The probes, sense and antisense primers that were used were: […]
The level of phosphorylated eIF-2α, which inhibits nucleotide exchange on the eIF-2 complex and attenuates most protein synthesis, was analyzed by Western blot, and the expression was colocalized by immunostaining CC1 antibodies as described above. Western blot analysis was performed as follows. The corpus callosum from 3 mice was rinsed in ice cold phosphate-buffered saline (PBS) and pooled, and immediately homogenized in 5 volumes of Triton X-100 buffer (20 mM HEPES pH 7.5, 150 mM NaCl, 1% Triton X-100, 10% glycerol, 1 mM EDTA, 10 mM tetrasodium pyrophosphate, 100 mM NaF, 17.5 mM β-glycerophosphate, 10 mM phenylmethylsulfonyl fluoride, 15 μg/ml aprotonin, and 6 μg/ml pepstatin A) using a motorized homogenizer. After incubation on ice for 15 min, the extracts were cleared by centrifugation at 14,000 rpm twice for 30 min each. The protein content of each extract was determined by protein assay (Bio-Rad). The extracts (40 μg) were separated by sodium dodecyl sulfate-polyacrylamide gel electrophoresis and transferred to nitrocellulose. […] The following primary antibodies were used: anti-eIF-2α (1:500; Santa Cruz, Santa Cruz, Calif.), anti-p-eIF-2α (1:1000, Cell signaling Technology), anti-CHOP (1:500; Santa Cruz) and anti-actin (1:1000; Sigma, St Louis, Mo.).

[2] = system: oligodendrocytes in adult mice; assay: IFN-γ expression in the CNS of adult double transgenic mice (released from doxycycline at 4 weeks of age)
Text: Compared with the actively myelinating oligodendrocytes of young growing animals, oligodendrocytes in adult mice produce lower levels of membrane proteins and lipids, just enough to maintain homeostasis in the myelin structure (Morell, et al. (1999) Basic Neurochemistry: Molecular, Cellular, and Medical Aspects (Philadelphia, Pa.: Lippincott-Raven Publishers): 69-93). The ER of oligodendrocytes in adult animals may thus have more spare capacity to process increased protein load and as such may be less sensitive to disruptions of the protein secretory pathway. To examine this possibility, double transgenic mice were allowed to develop to maturity, at which time IFN-γ expression in the CNS was initiated.

[3] = system: CNS of 14-day-old double transgenic mice; assay: Ectopic expression of IFN-γ in the CNS during development (released from doxycycline at E14), PERK+/+ or PERK+/− background
Text: To study the effect of INF-γ on the myelination of oligodendrocytes during mouse development, transgenic mice that allow for temporally regulated delivery of IFN-γ to the CNS using the tetracycline (tet) controllable system (Lin, et al. (2004) J. Neurosci. 24: 10074-10083) were generated. To drive tTA expression in astrocytes, the transcriptional regulatory region of the glial fibrillary acidic protein (GFAP) gene was chosen (Brenner, et al. (1994) J. Neurosci. 14: 1030-1037). GFAP/tTA mice were mated with TRE/IFN-γ mice to produce animals hemizygous for both transgenes. When these mice are maintained on doxycycline (DOX+), expression of the IFN-γ transgene is repressed (FIG. 10A); when the double transgenic mice are released from doxycycline (DOX−) INF-γ is expressed. For the purpose of these experiments, mice received doxycycline up to day 14 of development (E14), at which time the experimental animals (DOX−) stopped receiving doxycycline, while the control animals (DOX+) were continuosly fed the dug. The mRNA for IFN-γ could be detected in the DOX− mice as early as 10 days after birth (data not shown).
Real time PCR analysis was performed to determine the levels of expression of INF-γ, MHC-1, BIP, CHOP, and caspase 12. The primers for the PCR reactions for BIP, CHP and caspase 12 are given in example 1. The sense and antisense primers for INF-γ were […] (SEQ ID NO: 39) and […] (SEQ ID NO: 40), respectively; and the sense and antisense primers for MHC-1 were MHC-I sense primer: ATTCCCCAAAGGCCCATGT (SEQ ID NO: 1); and MHC-I antisense primer: […] (SEQ ID NO: 2).
Western blot analysis was performed on the CNS of 14 day old mice to determine the expression of caspase-12 as described in Example 6.
Brain and spinal cord tissue were analyzed using immunohistochemical methods as follows. Anesthetized mice were perfused through the left cardiac ventricle with 4% paraformaldehyde in 0.1M PBS. The half-saggital brains and transcervical spinal cord were removed, postfixed with paraformaldehyde, cryopreserved in 30% sucrose, embedded in OCT and frozen on dry ice. Frozen sections were cut in a cryostat at a thickness of 10 μm. Coronal sections at the fornix region of the corpus callosum corresponding to Sidman sections 241-251 were selected for use, and all comparative analyses were restricted to midline corpus callosum (Sidman, et al. (1971) Atlas of the Mouse Brain and Spinal Cord (Harvard Univ. Press, Cambridge, Mass.). For immunohistochemistry, frozen sections were treated with −20° C. acetone, blocked with PBS containing 10% NGS and 0.1% Triton X-100 and incubated overnight with the primary antibody diluted in blocking solution. Appropriate fluorochrome- or enzyme-labeled secondary antibodies (Vector Laboratories, Burlingame, Calif.) were used for detection. An antibody against CC1 (APC7, 1:50; EMD Biosciences, Inc., La Jolla, Calif.) was used as a marker for mature oligodendrocytes. Antibody against MBP (1:1000; Stemberger Monoclonals, Lutherville, […].) was used to verify the degree of myelination. Antibody against active-caspase-3 (1:50, Cell signaling Technology, Beverly, Mass.) was used as a marker for apoptotic cells. Fluorescent stained sections were mounted with Vectashield mounting medium with DAPI (Vector Laboratories) and visualized with a Zeiss Axioplan fluorescence microscope. Images were captured using a Photometrics PXL CCD camera connected to an Apple Macintosh computer using the Open Lab software suite. Immunopositive cells were quantified by counting positive cells within the median of the corpus callosum, confined to an area of 0.04 mm^2. Only those cells with nuclei observable by DAPI staining were counted. Each MBP immunostaining slide was scored on a scale of zero to four. A score of zero indicates complete demyelination, and a score of four indicates normal myelination in the corpus callosum of adult mice. […]

[4] = corpus callosum of DOX− mice, Western blot
[5] = CNS, PND 14, DOX− released at E14, real-time PCR

interferon-γ [IFN-γ]
level of CHOP protein [1, 4]: approximately 1.7 fold | level of phosphorylated eIF-2α (p-eIF-2α) [1, 4]: approximately 1.8 fold | level of mRNA for BIP and CHOP ([1]; corpus callosum, DOX− compared to control DOX+, real time PCR): approximately 2 fold | BIP and CHOP in the cerebellum ([2]; 10-week-old mice released from doxycycline at 4 weeks of age): modest induction | oligodendrocyte survival ([2]; adult mice, wild-type or PERK+/− background): did not affect | caspase-12 expression ([3]; CNS, PND 14, DOX− released at E14): strongly enhanced | BIP expression [3, 5]: approximately 1.6 times the control levels | CHOP expression [3, 5]: ~2 times the control levels | mice that experienced tonic seizures ([3]; E14 DOX− PERK+/−): approximately two-thirds | decrease of oligodendrocyte numbers in the spinal cord ([3]; IFN-γ expressing mice on a PERK+/− background, 14-day-old, CC1): more than 50% | unmyelinated axons in the spinal cord ([3]; PERK+/− mice that express IFN-γ in the CNS, 14-day-old): 81%±14.9% | number of TUNEL positive oligodendrocytes in the cervical spinal cord, PERK+/− relative to wild-type background ([3]; released from doxycycline at E14): 2.5 times | mice that died by post natal day (PND) 27 ([3]; released from doxycycline at E14, PERK+/− background): more than 90% | survival ([3]; released from doxycycline at E14, wild-type background): normal survival | unmyelinated axons in the spinal cord ([3]; wild-type background, released from doxycycline at E14): 30%±12.9%
